Usually EC50 stands for the concentration giving half of the maximal effect. By MIC is commonly meant the lowest concentration found to suppress growth. Low values mean a more susceptible organism, high ones a less susceptible organism. A word on the CC50: it is the concentration at which the toxic effect on the cells reaches its halfway point. A higher CC50 goes with better tolerance by the cells.

In brackets after ≈: the same amount, converted by molar mass.

Consider nine compounds from ChEMBL document CHEMBL4219188, “Design, synthesis, neuroprotective, antibacterial activities and docking studies of novel thieno[2,3-d]pyrimidine-alkyne Mannich base and oxadiazole hybrids” (Bioorg Med Chem Lett, 2018).

Data set [1] concerns Pseudomonas aeruginosa. The data set can be described thus: Antibacterial activity against Pseudomonas aeruginosa assessed as diameter of inhibition zone measured after 24 hrs by agar well diffusion method. The data set is classed as functional. A general note: A growth-free zone around the sample is the usual read-out of agar diffusion tests.
The test system of data set [2] is PC-12. Description: Neuroprotective activity against H2O2-induced cytotoxicity in rat PC12 cells assessed as increase in cell viability pretreated for 24 hrs followed by H2O2 addition by MTT assay. The class given is functional, cell-based.
In data set [3] the test system is Escherichia coli. Description: Antibacterial activity against Escherichia coli assessed as diameter of inhibition zone measured after 24 hrs by agar well diffusion method. The class given is functional.
Data set [4] is described as follows: Cytotoxicity against rat PC12 cells assessed as cell viability at MNTC after 24 hrs by MTT assay relative to control. Conditions: read-out: Activity. The data set is classed as cell-based, PC-12.
Data set [5] can be described thus: Cytotoxicity against rat PC12 cells assessed as cell viability at CC50 after 24 hrs by MTT assay relative to control. To be noted: read-out: Activity. The class given is cell-based, PC-12. A general note: Formazan colour is commonly taken as a measure of viable cells.
Data set [6] concerns Staphylococcus aureus. The data set can be described thus: Antibacterial activity against Staphylococcus aureus assessed as diameter of inhibition zone measured after 24 hrs by agar well diffusion method. The class given is functional.
Data set [7] concerns PC-12. The data set can be described thus: Neuroprotective activity against H2O2-induced cytotoxicity in rat PC12 cells assessed as cell viability at EC50 pretreated for 24 hrs followed by H2O2 addition by MTT assay relative to control. The data set is classed as functional.
Data set [8] deals with Pseudomonas aeruginosa. The data set can be described thus: Antibacterial activity against Pseudomonas aeruginosa after 24 hrs by UV-vis spectrophotometric method. The data set is classed as functional.
In data set [9] the test system is Bacillus subtilis. Description: Antibacterial activity against Bacillus subtilis after 24 hrs by UV-vis spectrophotometric method. The data set is classed as functional.
Data set [10] relates to Staphylococcus aureus. The data set can be described thus: Antibacterial activity against Staphylococcus aureus after 24 hrs by UV-vis spectrophotometric method. The data set is classed as functional.
The nature of data set [11]: Cytotoxicity against rat PC12 cells after 24 hrs by MTT assay. The data set is classed as cell-based, PC-12. To be noted: for MNTC at 24 h: read-out: MNCC.
The subject of data set [12] is Escherichia coli. The data set can be described thus: Antibacterial activity against Escherichia coli after 24 hrs by UV-vis spectrophotometric method. The class given is functional.
Data set [13] deals with Bacillus subtilis. Description: Antibacterial activity against Bacillus subtilis assessed as diameter of inhibition zone measured after 24 hrs by agar well diffusion method. The class given is functional.

For `Cc1c(-c2nnc(-c3ccc([N+](=O)[O-])cc3)o2)sc2ncnc(N3CCCCC3)c12`, the “diameter of the inhibition zone (DIZ)” value is on record as 17 mm in [1], 14 mm in data set [3], 8 mm in data set [6] and 18 mm in [13]. In addition, the figures for the Activity entry in data set [2] and in data set [7] were “Dose-dependent effect” and 74.78%, respectively. Further, in data set [2], the EC50 was found to be 11.9 µg/mL (≈ 28.1 µM). Besides, the viability at 24 h was determined as 99% in [4] and 49.9% in [5]. In addition, the MIC in [8] worked out at 0.0382 µg/mL (≈ 0.0904 µM); in data set [9] it was 0.0641 µg/mL (≈ 0.152 µM); in data set [10], 0.044 µg/mL (≈ 0.104 µM); in data set [12], 0.0361 µg/mL (≈ 0.0854 µM). The compound also had a CC50 at 24 h in data set [11] of 145 µg/mL (≈ 343 µM). Besides, the MNTC at 24 h in [11] is 125 µg/mL.
Regarding `Cc1c(-c2nnc(-c3ccc([N+](=O)[O-])cc3)o2)sc2ncnc(N3CCOCC3)c12`, the “diameter of the inhibition zone (DIZ)” value in data set [1] stood at 16 mm; in [3], 16 mm; in [6], 16 mm; in data set [13], 13 mm. The results for the Activity entry in data set [2] and in data set [7] were “Dose-dependent effect” and 75.11%, respectively. Further, in data set [2], the EC50 came to 16.2 µg/mL (≈ 38.1 µM). The viability at 24 h in [4] was found to be 99.2%; in data set [5] it was 49.2%. Also, the MIC in [8] is 0.0266 µg/mL (≈ 0.0627 µM); in data set [9] it was 0.0381 µg/mL (≈ 0.0898 µM); in [10], 0.046 µg/mL (≈ 0.108 µM); in data set [12], 0.0382 µg/mL (≈ 0.09 µM). In addition, in data set [11], the midpoint of cytotoxicity, the CC50 at 24 h, lay at 94.2 µg/mL (≈ 222 µM). Moreover, the MNTC at 24 h in [11] came out at 80 µg/mL.
In the case of `COc1ccc(-c2nnc(-c3sc4ncnc(N5CCCCC5)c4c3C)o2)cc1`, the “diameter of the inhibition zone (DIZ)” value is 12 mm in data set [1], 17 mm in [3], 10 mm in data set [6] and 14 mm in data set [13]. Moreover, the Activity result in data set [2] was “Dose-dependent effect”; in data set [7], 75.12%. Besides, the EC50 in [2] is 20.1 µg/mL (≈ 49.4 µM). For the same compound, the viability at 24 h in [4] was found to be 99%; in data set [5] it was 49.9%. Besides, the MIC in [8] was 0.0448 µg/mL (≈ 0.11 µM); in data set [9], 0.0642 µg/mL (≈ 0.158 µM); in data set [10], 0.0366 µg/mL (≈ 0.0898 µM); in data set [12] it was 0.0486 µg/mL (≈ 0.119 µM). In [11], this compound registered a CC50 at 24 h of 124 µg/mL (≈ 305 µM). Also, in [11], the MNTC at 24 h is 100 µg/mL.
With `Cc1ccc(C#N)c(N2CCN(CC#CCOC(=O)c3sc4ncnc(N5CCOCC5)c4c3C)CC2)c1`, the “diameter of the inhibition zone (DIZ)” value in data set [1] is listed as 14 mm; in data set [3], 13 mm; in data set [6], 7 mm; in data set [13], 13 mm. Also, the Activity entry in data set [2] was “Dose-dependent effect”; in data set [7] it was 74.98%. In addition, the EC50 in [2] came to 41.3 µg/mL (≈ 77.9 µM). In addition, the results for the viability at 24 h in [4] and in data set [5] were 98.5% and 49.1%, respectively. Further, the MIC in [8] amounted to 0.0624 µg/mL (≈ 0.118 µM); in data set [9], 0.0156 µg/mL (≈ 0.0294 µM); in [10], 0.062 µg/mL (≈ 0.117 µM); in data set [12], 0.0324 µg/mL (≈ 0.0611 µM). This compound also yielded a CC50 at 24 h in [11] of 146 µg/mL (≈ 275 µM). Also, the MNTC at 24 h in [11] amounted to 118 µg/mL.
Turning to `Cc1c(C(=O)OCC#CCN2CCN(c3cc(C4CC4)ccc3C#N)CC2)sc2ncnc(N3CCOCC3)c12`, the “diameter of the inhibition zone (DIZ)” value in data set [1] is 13 mm; in data set [3], 12 mm; in data set [6] it was 13 mm; in [13], 10 mm. Also, the Activity result in data set [2] is “Dose-dependent effect”; in [7], 75.15%. In addition, the EC50 in [2] is 12.4 µg/mL (≈ 22.3 µM). The viability at 24 h in data set [4] was 99.1%; in data set [5], 49.9%. Besides, the MIC in [8] turned out to be 0.0634 µg/mL (≈ 0.114 µM); in data set [9], 0.124 µg/mL (≈ 0.223 µM); in [10], 0.312 µg/mL (≈ 0.56 µM); in [12], 0.186 µg/mL (≈ 0.334 µM). Also, in [11], the midpoint of cytotoxicity, the CC50 at 24 h, lay at 198 µg/mL (≈ 356 µM). For the same compound, in data set [11], the MNTC at 24 h was determined as 150 µg/mL.
In the case of `COc1ccc(N2CCN(CC#CCOC(=O)c3sc4ncnc(N5CCOCC5)c4c3C)CC2)cc1`, the “diameter of the inhibition zone (DIZ)” value in [1] came to 14 mm; in data set [3], 12 mm; in [6], 8 mm; in data set [13], 12 mm. Besides, the Activity entry in [2] was “Dose-dependent effect”; in data set [7], 74.89%. Further, the EC50 in data set [2] came out at 36.2 µg/mL (≈ 69.3 µM). Further, the viability at 24 h amounted to 98.1% in data set [4] and 49.1% in [5]. Also, the MIC in data set [8] was 0.062 µg/mL (≈ 0.119 µM); in data set [9], 0.062 µg/mL (≈ 0.119 µM); in [10], 0.062 µg/mL (≈ 0.119 µM); in data set [12], 0.12 µg/mL (≈ 0.23 µM). The compound further gave a CC50 at 24 h in data set [11] of 144 µg/mL (≈ 276 µM). Further, in data set [11], the MNTC at 24 h is 60 µg/mL.
In the case of `Cc1ccc(-c2nnc(-c3sc4ncnc(N5CCCCC5)c4c3C)o2)cc1`, the “diameter of the inhibition zone (DIZ)” value in data set [1] turned out to be 12 mm; in data set [3], 11 mm; in data set [6], 14 mm; in [13], 17 mm. Moreover, the Activity result in data set [2] was “Dose-dependent effect”; in data set [7], 74.98%. Further, in data set [2], the EC50 worked out at 28.2 µg/mL (≈ 72 µM). The figures for the viability at 24 h in data set [4] and in [5] were 99.5% and 49.2%, respectively. The MIC in data set [8] was determined as 0.0201 µg/mL (≈ 0.0513 µM); in [9] it was 0.0142 µg/mL (≈ 0.0363 µM); in data set [10], 0.0404 µg/mL (≈ 0.103 µM); in [12], 0.0138 µg/mL (≈ 0.0352 µM). In data set [11], it took 161 µg/mL (≈ 411 µM) to reach half-maximal cytotoxicity (CC50 at 24 h). In [11], the MNTC at 24 h was 110 µg/mL.
With `Cc1c(C(=O)OCC#CCN2CCN(c3cc(C4CC4)ccc3C#N)CC2)sc2ncnc(N3CCCCC3)c12`, the “diameter of the inhibition zone (DIZ)” value is 17 mm in data set [1], 17 mm in data set [3], 14 mm in data set [6] and 16 mm in data set [13]. The results for the Activity result in data set [2] and in data set [7] were “Dose-dependent effect” and 75.14%, respectively. Moreover, the EC50 in [2] came to 16.2 µg/mL (≈ 29.2 µM). The figures for the viability at 24 h in data set [4] and in data set [5] were 99.6% and 50.1%, respectively. Further, the MIC in [8] turned out to be 0.0686 µg/mL (≈ 0.124 µM); in data set [9] it was 0.0581 µg/mL (≈ 0.105 µM); in [10], 0.0422 µg/mL (≈ 0.0761 µM); in [12], 0.521 µg/mL (≈ 0.939 µM). The compound further had a CC50 at 24 h in data set [11] of 148 µg/mL (≈ 267 µM). Besides, the MNTC at 24 h in data set [11] came to 110 µg/mL.
In the case of `Cc1c(-c2nnc(-c3ccc(Cl)cc3)o2)sc2ncnc(N3CCCCC3)c12`, the “diameter of the inhibition zone (DIZ)” value in data set [1] was found to be 14 mm; in data set [3], 15 mm; in data set [6] it was 16 mm; in data set [13], 13 mm. Also, the Activity entry in data set [2] is “Dose-dependent effect”; in data set [7], 75.04%. Besides, in data set [2], the EC50 was 21.8 µg/mL (≈ 53 µM). The viability at 24 h in data set [4] came to 98.2%; in [5] it was 48.9%. Besides, the MIC is 0.144 µg/mL (≈ 0.35 µM) in [8], 0.0284 µg/mL (≈ 0.0689 µM) in data set [9], 0.0224 µg/mL (≈ 0.0544 µM) in data set [10] and 0.186 µg/mL (≈ 0.452 µM) in [12]. Half-maximal cytotoxicity in [11] (CC50 at 24 h) was put at 151 µg/mL (≈ 366 µM). Moreover, the MNTC at 24 h in data set [11] was found to be 136 µg/mL.
